Experiments:
[1] = system: Puccinia recondita f. sp. tritici; assay: Test H: wheat leaf rust, preventive spray on wheat seedlings, visual disease rating; details: 100 = 100% disease control; for Test H rating (disease control) / Test H rating (% disease control): wheat leaf rust; for Test H rating (disease control): sprayed the day before inoculation; for Test H rating (disease control) / pest or weed control at 200 µg/mL: 0 = no disease control; for Test H rating (% disease control): preventive spray, rating without asterisk; for pest or weed control at 200 µg/mL: read-out: Test H rating (disease control), wheat leaf rust, sprayed the day before inoculation
[2] = system: Puccinia recondita f. sp. tritici; assay: Test G: wheat leaf rust, spray after inoculation (curative) on wheat seedlings, visual disease rating; assay type: in vivo; details: 100 = 100% disease control; for Test G rating (disease control) / pest or weed control at 200 µg/mL: sprayed after inoculation, 0 = no disease control; for Test G rating (% disease control): spray after inoculation, rating without asterisk
Description: (§1) A hyphen (-) indicates no test results.

Septoria nodorum = assay: Test E: Septoria glume blotch, preventive spray on wheat seedlings, visual disease rating; details: 100 = 100% disease control; for Test E rating (disease control): Septoria glume blotch; for Test E rating (disease control) / pest or weed control at 200 µg/mL: 0 = no disease control relative to the controls; for Test E rating (% disease control): Septoria glume blotch on wheat, preventive spray, rating without asterisk; for pest or weed control at 200 µg/mL: Parastagonospora nodorum, in Triticum aestivum, read-out: Test E rating (disease control), Septoria glume blotch
Alternaria solani = assay: Test B: tomato early blight, preventive spray on tomato seedlings, visual disease rating; details: for Test B rating (disease control) / Test B rating (% disease control): tomato early blight, 100 = 100% disease control; for Test B rating (disease control): 0 = no disease control relative to the controls; for Test B rating (% disease control): preventive spray, rating without asterisk; for pest or weed control at 200 µg/mL: Alternaria solani, in Solanum lycopersicum, read-out: Test B rating (disease control)
Septoria tritici = assay: Test F: wheat leaf blotch, preventive spray on wheat seedlings, visual disease rating; assay type: in vivo; details: 100 = 100% disease control; for Test F rating (disease control) / pest or weed control at 200 µg/mL: 0 = no disease control relative to the controls; for Test F rating (% disease control): preventive spray, rating without asterisk; for pest or weed control at 200 µg/mL: Zymoseptoria tritici
Description: as §1

[3] = system: Blumeria graminis f. sp. tritici; assay: Test I: wheat powdery mildew, preventive spray on wheat seedlings, visual disease rating; details: 100 = 100% disease control; for Test I rating (disease control) / Test I rating (% disease control): wheat powdery mildew; for Test I rating (disease control) / pest or weed control at 200 µg/mL: 0 = no disease control relative to the controls; for Test I rating (% disease control): preventive spray, rating without asterisk; for pest or weed control at 200 µg/mL: Blumeria graminis, in Triticum aestivum, read-out: Test I rating (disease control), wheat powdery mildew
Phytophthora infestans = assay: whole plant or invertebrate; assay type: in vivo; details: for Test C rating (disease control) / Test C rating (% disease control): tomato late blight, 100 = 100% disease control; for Test C rating (disease control): 0 = no disease control relative to the controls; for Test C rating (% disease control): preventive spray, rating without asterisk; for pest or weed control at 200 µg/mL: Phytophthora infestans, in Solanum lycopersicum, read-out: Test C rating (disease control)
Botrytis cinerea = assay: Test A: tomato Botrytis, preventive spray on tomato seedlings, visual disease rating; details: 100 = 100% disease control; for Test A rating (disease control) / Test A rating (% disease control): tomato Botrytis; for Test A rating (disease control) / pest or weed control at 200 µg/mL: 0 = no disease control relative to the controls; for Test A rating (% disease control): preventive spray, 0 = no control relative to controls, rating without asterisk; for pest or weed control at 200 µg/mL: Botrytis cinerea, in Solanum lycopersicum, read-out: Test A rating (disease control), tomato Botrytis

`Cc1nn(C)c(Nc2ccc(Cl)cc2F)c1-c1c(F)cccc1F` [compound 162] was tested, and the “Test H rating (disease control)” value [1] was 100%, the “Test G rating (disease control)” value [2] was 9% and the “Test E rating (disease control)” value (Septoria nodorum) was 0%. For the same compound, the “Test B rating (disease control)” value (Alternaria solani) was 88%, the “Test F rating (disease control)” value (Septoria tritici) was 100% and the “Test I rating (disease control)” value [3] was 100%. For the same compound, the “Test C rating (disease control)” value (Phytophthora infestans) was 0% and the “Test A rating (disease control)” value (Botrytis cinerea) was 100%.
In the case of `Cc1nn(C)c(Nc2c(F)cc(Cl)cc2F)c1-c1ccc(Cl)cc1Cl` [compound 157], the “Test H rating (disease control)” value [1] is reported as 100%, the “Test G rating (disease control)” value [2] is reported as 27% and the “Test E rating (disease control)” value (Septoria nodorum) is reported as 87%. The “Test B rating (disease control)” value (Alternaria solani) was 97%, the “Test F rating (disease control)” value (Septoria tritici) was 100% and the “Test I rating (disease control)” value [3] was 99%. The “Test C rating (disease control)” value (Phytophthora infestans) was 0% and the “Test A rating (disease control)” value (Botrytis cinerea) was 100%.
With `COc1ccc(-c2c(C)nn(C)c2Nc2c(F)cc(Cl)cc2Cl)c(F)c1` [compound 191] the “Test H rating (% disease control)” value [1] was 99%, the “Test G rating (% disease control)” value [2] was 46% and the “Test E rating (% disease control)” value (Septoria nodorum) was 92%. The “Test B rating (% disease control)” value (Alternaria solani) was 99%, the “Test I rating (% disease control)” value [3] was 99% and the “Test C rating (% disease control)” value (Phytophthora infestans) was 0%. The “Test A rating (% disease control)” value (Botrytis cinerea) was 100%.
With `CCOc1ccc(-c2c(C)nn(C)c2Nc2c(F)cc(Cl)cc2F)c(F)c1` [compound 189] the “Test H rating (% disease control)” value [1] was 98%, the “Test G rating (% disease control)” value [2] was 0% and the “Test E rating (% disease control)” value (Septoria nodorum) was 90%. For the same compound, the “Test B rating (% disease control)” value (Alternaria solani) was 88%, the “Test I rating (% disease control)” value [3] was 98% and the “Test C rating (% disease control)” value (Phytophthora infestans) was 0%. The “Test A rating (% disease control)” value (Botrytis cinerea) was 100%.
`CCOc1cc(F)c(-c2c(C)nn(C)c2Nc2c(F)cc(Cl)cc2F)c(F)c1` [compound 199] was tested, and the “Test H rating (% disease control)” value [1] was 83%, the “Test G rating (% disease control)” value [2] was 0% and the “Test E rating (% disease control)” value (Septoria nodorum) was 69%. For the same compound, the “Test B rating (% disease control)” value (Alternaria solani) was 100%, the “Test F rating (% disease control)” value (Septoria tritici) was 100% and the “Test I rating (% disease control)” value [3] was 99%. For the same compound, the “Test C rating (% disease control)” value (Phytophthora infestans) was 68% and the “Test A rating (% disease control)” value (Botrytis cinerea) was 100%.
With `CCOc1ccc(-c2c(C)nn(C)c2Nc2c(Cl)cc(F)cc2Cl)c(F)c1` [compound 192] the “Test H rating (% disease control)” value [1] was 65%, the “Test G rating (% disease control)” value [2] was 0% and the “Test E rating (% disease control)” value (Septoria nodorum) was 0%. The “Test B rating (% disease control)” value (Alternaria solani) was 66%, the “Test F rating (% disease control)” value (Septoria tritici) was 100% and the “Test I rating (% disease control)” value [3] was 35%. The “Test C rating (% disease control)” value (Phytophthora infestans) was 0% and the “Test A rating (% disease control)” value (Botrytis cinerea) was 33%.
`Cc1nn(C)c(Nc2ccc(F)cc2Cl)c1-c1ccc(F)cc1Cl` [Compound 47, N,4-bis(2-chloro-4-fluorophenyl)-1,3-dimethyl-1H-pyrazol-5-amine] gave a pest or weed control at 200 µg/mL [1] of 99%, a pest or weed control at 200 µg/mL [2] of 93% and a pest or weed control at 200 µg/mL (Septoria nodorum) of 82%. It also gave a pest or weed control at 200 µg/mL (Alternaria solani) of 99%, a pest or weed control at 200 µg/mL (Septoria tritici) of 96% and a pest or weed control at 200 µg/mL [3] of 100%. For the same compound, the pest or weed control at 200 µg/mL (Phytophthora infestans) was 0% and the pest or weed control at 200 µg/mL (Botrytis cinerea) was 100%.
Compound `Cc1nn(C)c(Nc2c(F)cc(F)cc2Br)c1-c1ccc(F)cc1F` [Compound 143, N-(2-bromo-4,6-difluorophenyl)-4-(2,4-difluorophenyl)-1,3-dimethyl-1H-pyrazol-5-amine] has a pest or weed control at 200 µg/mL [1] of 100%, a pest or weed control at 200 µg/mL [2] of 100% and a pest or weed control at 200 µg/mL (Septoria nodorum) of 100%. For the same compound, the pest or weed control at 200 µg/mL (Alternaria solani) was 100%, the pest or weed control at 200 µg/mL (Septoria tritici) was 100% and the pest or weed control at 200 µg/mL [3] was 100%. For the same compound, the pest or weed control at 200 µg/mL (Phytophthora infestans) was 0% and the pest or weed control at 200 µg/mL (Botrytis cinerea) was 100%.
`Cc1nn(C)c(Nc2c(F)cc(F)cc2Br)c1-c1ccc(F)cc1Br` [Compound 195, N-(2-bromo-4,6-difluorophenyl)-4-(2-bromo-4-fluorophenyl)-1,3-dimethyl-1H-pyrazol-5-amine] was tested, and the “Test G rating (% disease control)” value [2] was 89%, the “Test E rating (% disease control)” value (Septoria nodorum) was 99% and the “Test B rating (% disease control)” value (Alternaria solani) was 100%. The “Test C rating (% disease control)” value (Phytophthora infestans) was 0%.
